The values that follow are results of earlier work, collected in US11311621B2, “Organosilicon compound microparticles and process for their preparation” (SILICIUM ESPAÑA LABORATORIOS, S.L., priority 2018, dated 2022).

The conditions of this series: 21° C., without irreversible polymerization after 2 months.

Bounds are passed on as bounds.

For monomethylsilanetriol [MMST], the “solubility of MMST in water without irreversible polymerization” value is “up to 21 mM” and the “solubility of MMST in water without irreversible polymerization (as silicon)” value was not above 588 mg Si/L.
